Reference: patent US7259004B1, “Endophytic streptomycetes from higher plants with biological activity” (Montana State University, priority 2002, dated 2007)
≈ marks a conversion by molar mass, not a printed value.

How the values were obtained:
[1] = tested on: Human Cervical Cancer Epithelial ME180; test: CellTiter 96 Aqueous Non-Radioactive Cell Proliferation Assay; format: cell-based; conditions: Homo sapiens, ME-180; 48 hours; Table 7; read-out: IC50 Human Cervical Cancer Epithelial ME180
Experimental: (§1) The munumbicins were then tested against three human cancer cell lines (ATCC) and human primary mammary epithelial cells (HMECs) (Clonetics; Biowhittaker, Walkersville, Md.) using a CellTiter 96® Aqueous Non-Radioactive Cell Proliferation Assay kit from Promega (Madison, Wis.). The cell lines were A-549 (lung epithelial carcinoma, ATCC CCL-185), ME-180 (cervical epithelial epidermoid carcinoma, ATCC HTB-33), and BT-20 (breast epithelial cancer, ATCC HTB-19), and were grown in the media recommended by ATCC. The primary mammary cells were cultured as recommended by the manufacturer in mammary epithelial cell growth media (MEGM®). […] After seeding, the cells were incubated for five hours at 37° C. before addition of the munumbicins. Two-fold serial dilutions of the munumbicins were made in the culture medium, and a volume equal to that of the seeded cells for each dilution was added to three wells of cells. Each plate also contained some wells with cells plus medium only and some wells with medium only. […] The A-549 and ME-180 cells were incubated for 48 hours. […] The plates were incubated at 37° C. for one to four hours, and the OD490 was determined. The OD reading of all wells was corrected for background by subtracting the reading of wells containing medium only. […] Kakadumycin A was tested against three human cancer cell lines (ATCC) and human primary mammary epithelial cells using the procedure described above for the munumbicins. Kadadumycin B was tested against one human cancer cell line.

[2] = tested on: Human Lung Cancer Epithelial A549; test: as above; format: cell-based; conditions: Homo sapiens, A549; 48 hours; Table 7; read-out: IC50 Human Lung Cancer Epithelial A549
Experimental: as §1

B. subtilis 1A757 = test: microbe, parasite or virus in culture; format: cell-based, Bacillus subtilis
[3] = tested on: RNA synthesis in Bacillus subtilis; test: macromolecular synthesis whole cell assay, [3H]uridine incorporation; format: cell-based; conditions: 1×MIC
[4] = tested on: Cell wall synthesis in Bacillus subtilis; test: macromolecular synthesis whole cell assay, [3H]N-acetyl glucosamine incorporation; format: cell-based; conditions: 1×MIC
[5] = tested on: M. tuberculosis H37Rv (ATCC 25618) (drug sensitive); test: IC50 in Mycobacteria 7H11 agar; format: cell-based, Mycobacterium tuberculosis; conditions: Mycobacterium tuberculosis; 7H11 agar with 10% OADC
Aspergillus fumigatus = test: microbroth dilution MIC
Candida albicans = test: microbroth dilution MIC
Cryptococcus neoformans = test: microbroth dilution MIC
[6] = tested on: Plasmodium falciparum strain CSC-1 (Honduras); test: antimalarial assay, 3H-phenylalanine radiobioassay in human red blood cells
[7] = tested on: Enterococcus faecium ATCC 49624; test: disk diffusion assay; format: cell-based; conditions: 10 micrograms per disk; ciprofloxacin 5, vancomycin 30 micrograms per disk; 35° C.
[8] = tested on: Enterococcus faecium ATCC 51559; test: disk diffusion assay; format: cell-based; conditions: 10 micrograms per disk; ciprofloxacin 5, vancomycin 30 micrograms per disk; 35° C.
[9] = tested on: Candida tropicalis ATCC 750; test: disk diffusion assay; format: cell-based; conditions: A3-5-1 10 micrograms; Flucytosine 10 micrograms; RPMI-glucose agar 35° C.
[10] = tested on: Candida albicans ATCC 90028; test: disk diffusion assay; format: cell-based; conditions: A3-5-1 10 micrograms; Flucytosine 10 micrograms; RPMI-glucose agar 35° C.
[11] = tested on: Candida parasilosis ATCC 22019; test: disk diffusion assay; format: cell-based, Candida parapsilosis; conditions: A3-5-1 10 micrograms; Flucytosine 10 micrograms; RPMI-glucose agar 35° C.
Candida krusei ATCC 6258 = test: disk diffusion assay; format: cell-based; conditions: A3-5-1 10 micrograms; Flucytosine 10 micrograms; RPMI-glucose agar 35° C.
[12] = tested on: Candida glabrata ATCC 2001; test: disk diffusion assay; format: cell-based; conditions: A3-5-1 10 micrograms; Flucytosine 10 micrograms; RPMI-glucose agar 35° C.
[13] = tested on: Candida albicans ATCC 24433; test: disk diffusion assay; format: cell-based; conditions: A3-5-1 10 micrograms; Flucytosine 10 micrograms; RPMI-glucose agar 35° C.
[14] = tested on: Candida parasdosis ATCC 90018; test: disk diffusion assay; format: cell-based, Candida parapsilosis; conditions: A3-5-1 10 micrograms; Flucytosine 10 micrograms; RPMI-glucose agar 35° C.
[15] = tested on: Saccharomyces cerevisiae ATCC 9763; test: disk diffusion assay; format: cell-based; conditions: A3-5-1 10 micrograms; Flucytosine 10 micrograms; RPMI-glucose agar 35° C.
[16] = tested on: Cryptococcus neoformans ATCC 32045; test: disk diffusion assay; format: cell-based; conditions: A3-5-1 10 micrograms; Flucytosine 10 micrograms; RPMI-glucose agar 35° C.

For `CC[C@H]1OC(=O)[C@H](C)[C@@H](O[C@H]2C[C@@](C)(OC)[C@@H](O)[C@H](C)O2)[C@H](C)[C@@H](O[C@@H]2O[C@H](C)C[C@H](N(C)C)[C@H]2O)[C@](C)(O)C[C@@H](C)C(=O)[C@H](C)[C@@H](O)[C@]1(C)O` [Erythromycin, reference compound], the IC50 [1] was over 40 µg/mL and the IC50 [2] was over 40 µg/mL.

In the case of `CO[C@H]1/C=C/O[C@@]2(C)Oc3c(C)c(O)c4c(O)c(c(/C=N/N5CCN(C)CC5)c(O)c4c3C2=O)NC(=O)/C(C)=C\C=C\[C@H](C)[C@H](O)[C@@H](C)[C@@H](O)[C@@H](C)[C@H](OC(C)=O)[C@@H]1C` [Rifampicin, reference compound], the “1×MIC against Bacillus subtilis” value (B. subtilis 1A757) is reported as 0.25 micrograms/ml, the “% [3H]uridine (RNA synthesis) incorporation of that of the untreated culture” value ([3]; 5 min) is reported as 13% and the “% [3H]uridine (RNA synthesis) incorporation of that of the untreated culture” value ([3]; 10 min) is reported as 15%. The “% [3H]N-acetyl glucosamine (Cell wall synthesis) incorporation of that of the untreated culture” value ([4]; 5 min) was 47%, the “% [3H]N-acetyl glucosamine (Cell wall synthesis) incorporation of that of the untreated culture” value ([4]; 10 min) was 48% and the IC50 [5] was under 1 µg/mL.

`C[C@@H]1[C@H](O)[C@@H](C)/C=C/C=C/C=C/C=C/C=C/C=C/C=C/[C@H](O[C@@H]2O[C@H](C)[C@@H](O)[C@H](N)[C@@H]2O)C[C@@H]2O[C@](O)(C[C@@H](O)C[C@@H](O)[C@H](O)CC[C@@H](O)C[C@@H](O)CC(=O)O[C@H]1C)C[C@H](O)[C@H]2C(=O)O` [Amphotericin B, reference compound] was tested, and the “MIC Aspergillus fumigatus” value (Aspergillus fumigatus) was 0.62 micrograms/ml, the “MIC Candida albicans” value (Candida albicans) was 1.25 micrograms/ml and the “MIC Cryptococcus neoformans” value (Cryptococcus neoformans) was 0.13 micrograms/ml.

In the case of `CCN(CC)CCCC(C)Nc1ccnc2cc(Cl)ccc12` (stereo not drawn) [Chloroquine, reference compound], the IC50 ([6]; Plasmodium falciparum, Erythrocyte, read-out: IC50 Plasmodium falciparum) is reported as 0.007 µg/mL (≈ 0.0219 µM) and the “IC50 Plasmodium falciparum” value ([6]; human red blood cells, 3H-phenylalanine, standard deviation of the mean, three experiments) is reported as 0.007 ± 0 µg/mL (≈ 0.0219 µM).

For Penicillin, the “diameter of the zone of inhibition, Enterococcus faecium ATCC 49624” value [7] was 21 mm and the “diameter of the zone of inhibition, Enterococcus faecium ATCC 51559” value [8] was 0 mm.

`Nc1[nH]c(=O)ncc1F` [Flucytosine, reference compound] was tested, and the “Disk Diffusion, Candida tropicalis 750” value [9] was 47 mm, the “Disk Diffusion, Candida albicans 90028” value [10] was 37 mm and the “Disk Diffusion, Candida parapsilosis 22019” value [11] was 46 mm. The “Disk Diffusion, Candida krusei 6258” value (Candida krusei ATCC 6258) was 7 mm, the “Disk Diffusion, Candida glabrata 2001” value [12] was 53 mm and the “Disk Diffusion, Candida albicans 24433” value [13] was 20 mm. For the same compound, the “Disk Diffusion, Candida parapsilosis 90018” value [14] was 57 mm, the “Disk Diffusion, Saccharomyces cerevisiae 9763” value [15] was 50 mm and the “Disk Diffusion, Cryptococcus neoformans 32045” value [16] was 42 mm.
